Assay results as given in patent US8962689B2, “Medium chain dicarboxylic acids, their derivates and metabolic disorders” (Nestec S.A., priority 2008, dated 2015).

What was measured:
Assay type in all cases: in vivo, human
[1] = Time course of plasma sebacate in T2D subjects
Description: FIG. 5 reports the time course of plasma sebacate in T2D subjects.
FIG. 5 reports the time course of plasma sebacate in T2D subjects. […] Another difference was that in diabetics the two curves (10 g vs. 23 g) were overlapped up to 320 minutes, and then the concentration of C10 declined slower in the 23 g C10 fed patients compared with 10 g of C10.

[2] = Time course of plasma sebacate in healthy subjects
Description: FIG. 4 reports the time course of plasma sebacate in healthy subjects.
FIG. 4 reports the time course of plasma sebacate in healthy subjects. The peak was reached after 320 minutes from the beginning of the experiment, i.e. […] after the ingestion of the meal enriched with C10. C10 peaked later (delay of 40 minutes) after 23 g C10 ingestion.

healthy subjects = assay: Cross-over single-blind pilot study, mixed formula meal with sebacic acid (C10), healthy subjects; conditions: for Glucose AUC / Insulin AUC / Total ISR (insulin secretion rate): 0-420 minutes, mean
Description: (§1) Ingestion of the different meals was performed at 100 min.
(§2) The acute effects of oral ingestion of sebacic acid on postprandial glycemia, hepatic gluconeogenesis and glycogenolysis were tested in T2D subjects and healthy volunteers during ingestion of a mixed meal at breakfast.
(§3) Type 2 diabetic patients and healthy subjects were matched for gender distribution, age, and body mass index as reported in the following table 1:
(§4) The subjects ingested the following formula meal
(§5) No C10 group (control group): 50% CHO, 15% protein and 35% lipids plus water
(§6) 10 g C10 group: 50% CHO, 15% protein and 35% lipids plus 10 g of C10 plus water

T2D subjects = assay: Cross-over single-blind pilot study, mixed formula meal with sebacic acid (C10), T2D subjects; conditions: for EGP (endogenous glucose production) / Gluconeogenesis / Glucose clearance / Total Ra (rate of appearance of deuterated glucose) / Glucose AUC / Insulin AUC / Total ISR (insulin secretion rate): type 2 diabetic subjects; for Glucose AUC / Insulin AUC / Total ISR (insulin secretion rate): 0-420 minutes, mean
Description: as §1, §2, §3, §4, §5, §6

[3] = healthy subjects, 10 g C10 meal
[4] = healthy subjects, 23 g C10 meal
[5] = T2D subjects (n=10), 10 g meal, vs control meal
[6] = T2D subjects (n=10), 23 g C10 DA meal, vs control meal

## O=C(O)CCCCCCCCC(=O)O [C10, sebacic acid]
[1]; T2D subjects
  Plasma C10 peak times compared with controls: the peak times were maintained
[1]; T2D subjects vs healthy controls
  Plasma C10 concentration relative to values reached in controls: about 1.5 times
[2]; 23 g C10 ingestion
  Delay of plasma C10 peak after 23 g C10 ingestion: 40 min
[2]; oral, meal enriched with C10
  Time of plasma sebacate peak after the ingestion of the meal: 200 min
  Time of plasma sebacate peak from the beginning of the experiment: 320 min
Healthy subjects; healthy subjects (n=10), 23 g sebacic acid, vs control meal
  Change in postprandial insulinemia AUC: −38%
Healthy subjects; [3]
  EGP (endogenous glucose production): 6.30 ± 2.45 μmol · min^−1 · kgffm^−1
  Gluconeogenesis: 31.28 ± 5.07%
  Glucose clearance: 0.164 ± 0.0144 L/h/kg
  Total Ra (rate of appearance of deuterated glucose): 20.60 ± 2.88 μmol · min^−1 · kgffm^−1
  Glucose AUC: 37400 mg·min/dL
  Insulin AUC: 51100 pM·min
  Total ISR (insulin secretion rate): 101.15 nmol
Healthy subjects; [4]
  EGP (endogenous glucose production): 6.172 ± 0.68 μmol · min^−1 · kgffm^−1
  Gluconeogenesis: 31.20 ± 3.63%
  Glucose clearance: 0.164 ± 0.0156 L/h/kg
  Total Ra (rate of appearance of deuterated glucose): 21.20 ± 1.30 μmol · min^−1 · kgffm^−1
  Glucose AUC: 38100 mg·min/dL
  Insulin AUC: 39200 pM·min
  Total ISR (insulin secretion rate): 93.60 nmol
Healthy subjects; healthy subjects, C10 ingestion
  Glucose clearance, result in words: significantly improved
Healthy subjects; healthy subjects, meal with lipids substituted with 23 g C10
  ISR, result in words: significantly reduced
T2D subjects; [5]
  Change in postprandial Endogenous Glucose Production: −10%
  Change in postprandial Gluconeogenesis (%): −2.1%
  Change in postprandial glycemia area under the curve (AUC): −17%
  Increase in postprandial glucose clearance: +12.6%
T2D subjects; [6]
  Change in postprandial Endogenous Glucose Production: −9%
  Change in postprandial Gluconeogenesis (%): −2.3%
  Change in postprandial glycemia area under the curve (AUC): −16%
  Change in postprandial insulin secretion rate: −35%
  Increase in postprandial glucose clearance: +8.2%
T2D subjects; diabetic patients, C10 ingestion
  Glucose clearance, result in words: significantly improved
T2D subjects; diabetic patients, both C10 enriched meals
  GNG, result in words: significantly reduced
T2D subjects; diabetic patients, meal containing 10 g of C10
  Glucose AUC, result in words: significantly lower
T2D subjects; diabetic patients, meal with lipids substituted with 23 g C10
  ISR, result in words: significantly reduced
T2D subjects; 10 g C10 meal
  EGP (endogenous glucose production): 7.81 ± 3.27 μmol · min^−1 · kgffm^−1
  Gluconeogenesis: 40.862 ± 3.62 %
  Glucose clearance: 0.106 ± 0.0078 L/h/kg
  Total Ra (rate of appearance of deuterated glucose): 19.60 ± 2.41 μmol · min^−1 · kgffm^−1
  Glucose AUC: 43700 mg·min/dL
  Insulin AUC: 33500 pM·min
  Total ISR (insulin secretion rate): 213.69 nmol
T2D subjects; 23 g C10 meal
  EGP (endogenous glucose production): 7.00 ± 2.47 μmol · min^−1 · kgffm^−1
  Gluconeogenesis: 40.72 ± 4.00 %
  Glucose clearance: 0.103 ± 0.0126 L/h/kg
  Total Ra (rate of appearance of deuterated glucose): 20.32 ± 2.19 μmol · min^−1 · kgffm^−1
  Glucose AUC: 44200 mg·min/dL
  Insulin AUC: 29500 pM·min
  Total ISR (insulin secretion rate): 142.27 nmol
T2D subjects; type 2 diabetics, C10 enriched meals compared with the standard meal
  EGP, result in words: significantly reduced
